Legend:
WI-38 NC = test: Senolytic activity, cell viability (PrestoBlue HS), WI-38 NC; format: cell-based; conditions: Homo sapiens, 72 h
Experimental: (§1) WI-38 and HUVEC cells were incubated with increasing concentrations of degraders for 72 h. Cell viability was measured using PrestoBlue HS cell viability reagent.

[1] = tested on: WI-38 irradiation-induced senescent cells (IR-SC); test: Senolytic activity, cell viability (PrestoBlue HS), WI-38 IR-SC; format: cell-based; conditions: Homo sapiens, 72 h
Experimental: (§2) To induce senescence in WI-38 and HUVEC, cells were subjected to x-ray irradiation at 20 Gray using X-RAD 320 biological irradiator. Following between 10 to 15 days after irradiation, senescence was induced in cells, and irradiation-induced senescent cells (IR-SC) were then used for cell viability and Western blotting tests.
as §1

[2] = tested on: RS4;11 acute lymphoblastic leukemia cells; test: Cell viability, tetrazolium-based MTS assay, RS4;11; conditions: Homo sapiens, RS4;11, 48 h, read-out: Anti-Cancer Activity EC50 (48 hr), RS4
Experimental: (§3) Acute lymphoblastic leukemia cells (MOLT-4 and RS4;11) were incubated with increasing concentrations of Bcl-xL/Bcl-2 degraders for 48 h. Cell viability was measured by tetrazolium-based MTS assay.

[3] = tested on: MOLT-4 acute lymphoblastic leukemia cells; test: Cell viability, tetrazolium-based MTS assay, MOLT-4; conditions: Homo sapiens, MOLT-4, 48 h; read-out: Anti-Cancer Activity EC50 (48 hr), MOLT-4
Experimental: as §3

[4] = tested on: HUVEC irradiation-induced senescent cells (IR-SC); test: Senolytic activity, cell viability (PrestoBlue HS), HUVEC IR-SC; format: cell-based; conditions: Homo sapiens, 72 h
Experimental: as §2, §1

| Compound | EC50 (WI-38 NC) | EC50 [1] | EC50 [2] | EC50 [3] | EC50 [4] |
| --- | --- | --- | --- | --- | --- |
| C[C@@]1(CN2CCN(C(=O)CCCN3CCC(CN4CCN(c5ccc6c(c5)CN(C5CCC(=O)NC5=O)C6=O)CC4)CC3)CC2)CCC(c2ccc(Cl)cc2)=C(CN2CCN(c3ccc(C(=O)NS(=O)(=O)c4ccc(N[C@H](CCN5CCCOCC5)CSc5ccccc5)c(S(=O)(=O)C(F)(F)F)c4)cc3)CC2)C1 (stereo partly drawn) [Compound 9, N-((4-(((R)-4-(1,4-oxazepan-4-yl)-1-(phenylthio)butan-2-yl)amino)-3-((trifluoromethyl)sulfonyl)phenyl)sulfonyl)-4-(4-(((4R)-4′-chloro-4-((4-(4-(4-((4-(2-(2,6-dioxopiperidin-3-yl)-1-oxoisoindolin-5-yl)piperazin-1-yl)methyl)piperidin-1-yl)butanoyl)piperazin-1-yl)methyl)-4-methyl-3,4,5,6-tetrahydro-[1,1′-biphenyl]-2-yl)methyl)piperazin-1-yl)benzamide] | > 10000 nM | 10 to 100 nM | < 1 nM | < 1 nM |  |
| C[C@@]1(CN2CCN(C(=O)CN3CCC(CCN4CCN(c5ccc6c(c5)CN(C5CCC(=O)NC5=O)C6=O)CC4)CC3)CC2)CCC(c2ccc(Cl)cc2)=C(CN2CCN(c3ccc(C(=O)NS(=O)(=O)c4ccc(N[C@H](CCN5CCCOCC5)CSc5ccccc5)c(S(=O)(=O)C(F)(F)F)c4)cc3)CC2)C1 (stereo partly drawn) [Compound 10, N-((4-(((R)-4-(1,4-oxazepan-4-yl)-1-(phenylthio)butan-2-yl)amino)-3-((trifluoromethyl)sulfonyl)phenyl)sulfonyl)-4-(4-(((4R)-4′-chloro-4-((4-(2-(4-(2-(4-(2-(2,6-dioxopiperidin-3-yl)-1-oxoisoindolin-5-yl)piperazin-1-yl)ethyl)piperidin-1-yl)acetyl)piperazin-1-yl)methyl)-4-methyl-3,4,5,6-tetrahydro-[1,1′-biphenyl]-2-yl)methyl)piperazin-1-yl)benzamide] | > 10000 nM | 10 to 100 nM | < 1 nM | < 1 nM |  |
| C[C@@]1(CN2CCC(CN3CCN(CC#Cc4ccc5c(c4)CN(C4CCC(=O)NC4=O)C5=O)CC3)CC2)CCC(c2ccc(Cl)cc2)=C(CN2CCN(c3ccc(C(=O)NS(=O)(=O)c4ccc(N[C@H](CCN5CCCOCC5)CSc5ccccc5)c(S(=O)(=O)C(F)(F)F)c4)cc3)CC2)C1 (stereo partly drawn) [Compound 13, N-((4-(((R)-4-(1,4-oxazepan-4-yl)-1-(phenylthio)butan-2-yl)amino)-3-((trifluoromethyl)sulfonyl)phenyl)sulfonyl)-4-(4-(((4R)-4′-chloro-4-((4-((4-(3-(2-(2,6-12 dioxopiperidin-3-yl)-1-oxoisoindolin-5-yl)prop-2-yn-1-yl)piperazin-1-yl)methyl)piperidin-1-yl)methyl)-4-methyl-3,4,5,6-tetrahydro-[1,1′-biphenyl]-2-yl)methyl)piperazin-1-14 yl)benzamide] | > 10000 nM | 1 to 10 nM | < 1 nM | < 1 nM |  |
| CC1(CN2CCN(C(=O)CN3CCN(C(=O)CCCCNc4cccc5c4C(=O)N(C4CCC(=O)NC4=O)C5=O)CC3)CC2)CCC(c2ccc(Cl)cc2)=C(CN2CCN(c3ccc(C(=O)NS(=O)(=O)c4ccc(N[C@H](CCN5CCOCC5)CSc5ccccc5)c(S(=O)(=O)C(F)(F)F)c4)cc3)CC2)C1 (stereo partly drawn) [Compound 14, 4-(4-((4′-chloro-4-((4-(2-(4-(5-((2-(2,6-dioxopiperidin-3-yl)-1,3-dioxoisoindolin-4-yl)amino)pentanoyl)piperazin-1-yl)acetyl)piperazin-1-yl)methyl)-4-methyl-3,4,5,6-tetrahydro-[1,1′-biphenyl]-2-yl)methyl)piperazin-1-yl)-N-((4-(((R)-4-morpholino-1-(phenylthio)butan-2-yl)amino)-3-((trifluoromethyl)sulfonyl)phenyl)sulfonyl)benzamide] | > 10000 nM | 10000 to 100000 nM | < 1 nM | < 1 nM |  |
| CC1(CN2CCN(C(=O)CN3CCN(C(=O)COCCNc4cccc5c4C(=O)N(C4CCC(=O)NC4=O)C5=O)CC3)CC2)CCC(c2ccc(Cl)cc2)=C(CN2CCN(c3ccc(C(=O)NS(=O)(=O)c4ccc(N[C@H](CCN5CCOCC5)CSc5ccccc5)c(S(=O)(=O)C(F)(F)F)c4)cc3)CC2)C1 (stereo partly drawn) [Compound 15, 4-(4-((4′-chloro-4-((4-(2-(4-(2-(2-((2-(2,6-dioxopiperidin-3-yl)-1,3-dioxoisoindolin-4-yl)amino)ethoxy)acetyl)piperazin-1-yl)acetyl)piperazin-1-yl)methyl)-4-methyl-3,4,5,6-tetrahydro-[1,1′-biphenyl]-2-yl)methyl)piperazin-1-yl)-N-((4-(((R)-4-morpholino-1-30 (phenylthio)butan-2-yl)amino)-3-((trifluoromethyl)sulfonyl)phenyl)sulfonyl)benzamide] | > 10000 nM | 10000 to 100000 nM | < 1 nM | < 1 nM |  |
| CC1(CN2CCN(C(=O)CN3CCN(C(=O)CNc4cccc5c4C(=O)N(C4CCC(=O)NC4=O)C5=O)CC3)CC2)CCC(c2ccc(Cl)cc2)=C(CN2CCN(c3ccc(C(=O)NS(=O)(=O)c4ccc(N[C@H](CCN5CCOCC5)CSc5ccccc5)c(S(=O)(=O)C(F)(F)F)c4)cc3)CC2)C1 (stereo partly drawn) [Compound 16, 4-(4-((4′-chloro-4-((4-(2-(4-((2-(2,6-dioxopiperidin-3-yl)-1,3-dioxoisoindolin-4-yl)glycyl)piperazin-1-yl)acetyl)piperazin-1-yl)methyl)-4-methyl-3,4,5,6-tetrahydro-[1,1′-biphenyl]-2-yl)methyl)piperazin-1-yl)-N-((4-(((R)-4-morpholino-1-(phenylthio)butan-2-yl)amino)-3-((trifluoromethyl)sulfonyl)phenyl)sulfonyl)benzamide] | > 10000 nM | 10 to 100 nM | < 1 nM | < 1 nM |  |
| CC1(CN2CCN(C(=O)CN3CCN(C(=O)COc4cccc5c4C(=O)N(C4CCC(=O)NC4=O)C5=O)CC3)CC2)CCC(c2ccc(Cl)cc2)=C(CN2CCN(c3ccc(C(=O)NS(=O)(=O)c4ccc(N[C@H](CCN5CCOCC5)CSc5ccccc5)c(S(=O)(=O)C(F)(F)F)c4)cc3)CC2)C1 (stereo partly drawn) [Compound 18, 4-(4-((4′-chloro-4-((4-(2-(4-(2-((2-(2,6-dioxopiperidin-3-yl)-1,3-dioxoisoindolin-4-yl)oxy)acetyl)piperazin-1-yl)acetyl)piperazin-1-yl)methyl)-4-methyl-3,4,5,6-tetrahydro-[1,1′-biphenyl]-2-yl)methyl)piperazin-1-yl)-N-((4-(((R)-4-morpholino-1-(phenylthio)butan-2-yl)amino)-3-((trifluoromethyl)sulfonyl)phenyl)sulfonyl)benzamide] | > 10000 nM | 10 to 100 nM | < 1 nM | < 1 nM |  |
| C[C@@]1(CN2CCN(c3ccc4c(c3)C(=O)N(C3CCC(=O)NC3=O)C4)CC2)CCC(c2ccc(Cl)cc2)=C(CN2CCN(c3ccc(C(=O)NS(=O)(=O)c4ccc(N[C@H](CCN5CCCOCC5)CSc5ccccc5)c(S(=O)(=O)C(F)(F)F)c4)cc3)CC2)C1 (stereo partly drawn) [Compound 133, N-((4-(((R)-4-(1,4-oxazepan-4-yl)-1-(phenylthio)butan-2-yl)amino)-3-((trifluoromethyl)sulfonyl)phenyl)sulfonyl)-4-(4-(((4R)-4′-chloro-4-((4-(2-(2,6-dioxopiperidin-3-yl)-3-oxoisoindolin-5-yl)piperazin-1-yl)methyl)-4-methyl-3,4,5,6-tetrahydro-[1,1′-biphenyl]-2-yl)methyl)piperazin-1-yl)benzamide] |  | 10 to 100 nM | 1 to 10 nM | < 1 nM | < 1 nM |
| C[C@@]1(CN2CCC(CN3CCN(c4ccc(NC5CCC(=O)NC5=O)cc4F)CC3)CC2)CCC(c2ccc(Cl)cc2)=C(CN2CCN(c3ccc(C(=O)NS(=O)(=O)c4ccc(N[C@H](CCN5CCCOCC5)CSc5ccccc5)c(S(=O)(=O)C(F)(F)F)c4)cc3)CC2)C1 (stereo partly drawn) [Compound 141, N-((4-(((R)-4-(1,4-oxazepan-4-yl)-1-(phenylthio)butan-2-yl)amino)-3-((trifluoromethyl)sulfonyl)phenyl)sulfonyl)-4-(4-(((4R)-4′-chloro-4-((4-((4-(4-((2,6-dioxopiperidin-3-yl)amino)-2-fluorophenyl)piperazin-1-yl)methyl)piperidin-1-yl)methyl)-4-methyl-3,4,5,6-tetrahydro-[1,1′-biphenyl]-2-yl)methyl)piperazin-1-yl)benzamide] | > 10000 nM | 1 to 10 nM | 1 to 10 nM | 1 to 10 nM | < 1 nM |
